The values that follow come from article PMC10954593, “Gastrodinol derivatives and prenylated flavones from the flower branch of Gastrodia elata” (Natural Products and Bioprospecting, 2024).

In brackets after ≈: the same amount, converted by molar mass. Read-outs that look alike come from different tables or passages of the source.

Assay [1] deals with MRSA. The assay can be described thus: anti-MRSA activity (96-well culture plate, OD at 625 nm after 24 h). To be noted: for MIC50 / MIC50 (50% minimum inhibitory concentration), anti-MRSA: 24 h; for MIC50: read-out: MIC50 (50% minimum inhibitory concentration), anti-MRSA; for inhibition at 100 µM: read-out: Inhibition rate (%) of MRSA; for anti-MRSA activity (in words): abstract statement. It counts as cell-based, methicillin-resistant Staphylococcus aureus. The protocol:
Prepare samples with DMSO as a solvent into a solution with an initial concentration of 20 mM; Take a 96-well culture plate, dilute the sample to be measured, and add bacterial solution to each well, and the final concentration is 5 × 10^5 CFU/mL; Incubate at 37 °C for 24 h, and the microplate reader determines the OD value at 625 nm. The experiment also set up a media blank control, a bacterial control and a vancomycin-positive drug control.
MIC50 (50% minimum inhibitory concentration) is calculated according to the Reed & Muench method.

Assay [2] concerns the target AChE (Homo sapiens, UniProt P22303). The assay can be described thus: biochemical. It counts as biochemical. To be noted: for inhibition at 50 µM: concentration 50 μM, read-out: AChE inhibition rate, primary screening; for IC50: positive control tacrine, read-out: IC50 of AChE-inhibiting activity; for acetylcholinesterase inhibitory activity (in words): abstract statement. The procedure:
The reaction is carried out in a 96-well plate with plates plated by 200 μL/system with 3 replicates per sample; Detect the absorbance value of 405 nm every 30 s within 1 h after the addition of the color developer and substrate.

Where [3] appears, read: Staphylococcus aureus, MRSA, Reed & Muench method, 37 °C.
Setting [4] is: Staphylococcus aureus, MRSA, concentration 100 μM, preliminary screen.

Chain of AChE (P22303 32-614): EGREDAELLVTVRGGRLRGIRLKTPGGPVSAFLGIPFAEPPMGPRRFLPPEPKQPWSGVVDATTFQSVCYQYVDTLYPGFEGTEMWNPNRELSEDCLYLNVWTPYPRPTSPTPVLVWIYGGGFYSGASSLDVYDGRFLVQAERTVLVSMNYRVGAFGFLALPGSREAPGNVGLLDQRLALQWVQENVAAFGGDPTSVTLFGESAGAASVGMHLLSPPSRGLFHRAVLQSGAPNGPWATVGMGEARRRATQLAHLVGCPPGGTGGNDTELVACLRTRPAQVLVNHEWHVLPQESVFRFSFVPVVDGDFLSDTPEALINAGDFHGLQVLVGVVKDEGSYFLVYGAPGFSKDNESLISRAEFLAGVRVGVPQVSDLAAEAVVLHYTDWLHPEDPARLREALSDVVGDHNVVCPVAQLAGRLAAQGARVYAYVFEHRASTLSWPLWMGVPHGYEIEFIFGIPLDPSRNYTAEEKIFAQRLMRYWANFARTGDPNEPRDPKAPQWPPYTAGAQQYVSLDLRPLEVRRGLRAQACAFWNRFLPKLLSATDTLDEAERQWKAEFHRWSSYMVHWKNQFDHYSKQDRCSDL

The inhibition is the percentage by which the read-out fell short of the control. `COc1c(Cc2ccc(O)cc2)c(O)c2c3c(ccc2c1Cc1ccc(O)cc1)C(O)CCC3=O` (stereo not drawn) [Compound 1, 1,5-dihydroxy-6,8-bis(4-hydroxybenzyl)-7-methoxy-2,3-dihydrophenanthren-4(1H)-one]: in assay [1] (setting [3]), the MIC50 was determined as 22.06 ± 0.026 µM (≈ 10.4 µg/mL). Besides, the inhibition at 100 µM in assay [1] (setting [4]) was above 80%.
A word on the IC50: it is the concentration at which inhibition is half-maximal. On to `COc1cc(O)c2c3c(ccc2c1Cc1ccc(O)cc1)C(=O)C(Cc1ccc(O)cc1)(Cc1ccc(O)cc1)C3=O` [Compound 2, 9-hydroxy-2,2,6-tris(4-hydroxybenzyl)-7-methoxy-1H-cyclopenta[a]naphthalene-1,3(2H)-dione], for which the inhibition at 100 µM in assay [1] (setting [4]) stood at 77.2 ± 1.61%. For the same molecule, in assay [2], the inhibition at 50 µM is above 60% and the half-maximal inhibitory concentration (IC50) worked out at 24.7 ± 0.732 µM.
For the molecule `COc1cc2ccc3c(c2c(O)c1Cc1ccc(O)cc1)C(=O)C(Cc1ccc(O)cc1)(Cc1ccc(O)cc1)C3=O` [Compound 3, 9-hydroxy-2,2,8-tris(4-hydroxybenzyl)-7-methoxy-1H-cyclopenta[a]naphthalene-1,3(2H)-dione], the inhibition at 100 µM in assay [1] (setting [4]) was found to be 13.5 ± 2.48%. Also, in assay [2], the inhibition at 50 µM was above 60% and the 50% inhibitory concentration (IC50) came to 15.7 ± 1.57 µM.
For `Cc1ccc2c(c1)-c1cc(C3CC(=O)c4c(O)cc(O)cc4O3)c(O)cc1OC2(C)C` (stereo not drawn) [Compound 5, 5,7-dihydroxy-2-(3-hydroxy-6,6,9-trimethyl-6H-benzo[c]chromen-2-yl) chroman-4-one], in assay [1] (Reed & Muench method, 37 °C), the “MIC50 (50% minimum inhibitory concentration), anti-MRSA” value worked out at 4.46 ± 0.02 µM (≈ 1.87 µg/mL) and the MIC50 is recorded as 4.46 µM (≈ 1.87 µg/mL). Further, the MIC50 in assay [1] (setting [3]) came to 4.4 µM (≈ 1.84 µg/mL). The inhibition at 100 µM in assay [1] (setting [4]) was above 80%. For the same molecule, the “anti-MRSA activity (in words)” value in assay [1] is on record as “good activity”.
As to `CC1(C)C=Cc2c(cc(O)c3c(=O)c(CC(O)C(C)(C)O)c(-c4ccc(O)cc4O)oc23)O1` (stereo not drawn) [Compound 6, 3-(2,3-dihydroxy-3-methylbutyl)-2-(2,4-dihydroxyphenyl)-5-hydroxy-8,8-dimethyl-4H,8H-pyrano[2,3-f] chromen-4-one], the MIC50 in assay [1] (setting [3]) was 61.6 ± 1.56 µM (≈ 28 µg/mL). Besides, the inhibition at 100 µM in assay [1] (setting [4]) is above 80%.
In the case of `CC1=CC2c3c(cc(-c4cc5ccc(O)cc5o4)c(Cc4ccc(O)cc4)c3O)OC3(c4ccc(O)cc4O)Oc4cc(O)ccc4C(C1)C23` (stereo not drawn) [Compound 9, 8a-(2,4-dihydroxyphenyl)-6-(6-hydroxybenzofuran-2-yl)-5-(4-hydroxybenzyl)-2-methyl-1,3a1,8a,13b-tetrahydro-3aH-benzo [3, 4] isochromeno[1,8-bc] chromene-4,11-diol], the inhibition at 100 µM in assay [1] (setting [4]) was determined as 63.95 ± 0.124%. Besides, in assay [2], the “acetylcholinesterase inhibitory activity (in words)” value is listed as “good acetylcholinesterase inhibitory activity”, the inhibition at 50 µM is above 60% and the 50% inhibitory concentration (IC50) came to 0.488 ± 0.032 µM.
`CC(C)=CCc1c(O)cc(O)c2c(=O)c3c(oc12)-c1ccc(O)cc1OC3C=C(C)C` (stereo not drawn) [Compound 11, cyclomulberrin]: in assay [1] (Reed & Muench method, 37 °C), the “MIC50 (50% minimum inhibitory concentration), anti-MRSA” value worked out at 1.908 ± 0.014 µM (≈ 0.802 µg/mL). Moreover, the MIC50 in assay [1] (setting [3]) was 1.91 µM (≈ 0.802 µg/mL). The inhibition at 100 µM in assay [1] (setting [4]) was above 80%. Also, in assay [1], the “anti-MRSA activity (in words)” value is “good activity”.
Taken in the same sequence, the figures for `CC(C)=CCc1c(-c2ccc(O)cc2O)oc2c(CC=C(C)C)c(O)cc(O)c2c1=O` [Compound 12, kuwanon C] were 1.911 ± 0.018 µM (≈ 0.807 µg/mL), 1.91 µM (≈ 0.807 µg/mL), above 80% and “good activity”.
In the case of `CC1=C[C@H]2c3c(O)cc(-c4cc5ccc(O)cc5o4)cc3O[C@@]3(c4ccc(O)cc4O)Oc4cc(O)ccc4[C@H](C1)[C@@H]23` [Compound 13, mulberrofuran G], the “MIC50 (50% minimum inhibitory concentration), anti-MRSA” value in assay [1] (Reed & Muench method, 37 °C) stood at 1.264 ± 0.005 µM (≈ 0.711 µg/mL). For the same molecule, the MIC50 in assay [1] (setting [3]) worked out at 1.26 µM (≈ 0.711 µg/mL). The inhibition at 100 µM in assay [1] (setting [4]) is above 80%. Also, the “anti-MRSA activity (in words)” value in assay [1] is recorded as “good activity”. Further, in assay [2], the “acetylcholinesterase inhibitory activity (in words)” value was “good acetylcholinesterase inhibitory activity”, the inhibition at 50 µM was above 60% and the IC50 was found to be 1.06 ± 0.011 µM.
As for `CN[C@H](CC(C)C)C(=O)N[C@H]1C(=O)N[C@@H](CC(N)=O)C(=O)N[C@H]2C(=O)N[C@H]3C(=O)N[C@H](C(=O)N[C@H](C(=O)O)c4cc(O)cc(O)c4-c4cc3ccc4O)[C@H](O)c3ccc(c(Cl)c3)Oc3cc2cc(c3O[C@@H]2O[C@H](CO)[C@@H](O)[C@H](O)[C@H]2O[C@H]2C[C@](C)(N)[C@H](O)[C@H](C)O2)Oc2ccc(cc2Cl)[C@H]1O` [Vancomycin, reference compound], in assay [1] (Staphylococcus aureus, MRSA), the MIC50 was 0.433 ± 0.002 µM (≈ 0.628 µg/mL) and the inhibition at 100 µM was determined as 98.86 ± 0.495%.
